One data set has as its system salivary cortisol. Nature of the data set: salivary cortisol level before and after a stress test (enzyme immunoassay kit). It counts as in vivo, human. To be noted: Table 6; before vs immediately after ten minute stress test; about 10-15 panelists; DPG = −10.9%. The text has this: Salivary cortisol is widely used as a biomarker for stress. The purpose of this study was to investigate the influence of individual fragrance compounds, particularly musk compounds, on a subject's cortisol levels before and after exposure to a stressor. The subject sniffed each musk compound, then was exposed to a stressor. The goal was to identify one or more specific musk compounds which caused the least amount of change in cortisol levels or decreased a subject's cortisol levels compared to before administration, thereby reducing or inhibiting a response to stress stimuli.
(§1) Fourteen female panelists age 30-45 participated in this study. Stress was induced using a timed ten minute mathematical/word test in a small group competition setting. Fragrance was introduced at intervals during the stress test. Saliva was collected before (Pre) and immediately after (Post) the stress test. Saliva samples were assayed for salivary alpha-amylase using a commercially available kinetic reaction assay kit and for salivary cortisol using a highly sensitive enzyme immunoassay kit (Salimetrics®, State College, Pa.).
(§2) Stress was induced in a number of panelists (about 10-15) for each tested compound using a timed ten minute mathematical/word test in a small group competition setting. The test compound was introduced at intervals during the stress test.
(§3) Saliva was collected before and immediately after the stress test. Saliva samples were assayed for salivary cortisol levels and salivary alpha-amylase activity using a commercially available kinetic reaction assay kit (Salimetrics®, State College, Pa.).
(§4) Methodology for number of drops. Ten to twenty-four panelists age 30-45 participated in this study. The amount of fragrance tested was divided equally and applied onto 6 blotter cards each 3 by 5 inches in size. They were weighed and placed in the test room 30 minutes before the stress test to equilibrate.
(§5) Stress was induced using a timed ten-minute mathematical/word test in a small group competition setting. The blotter cards were removed and weighed again after the stress test. […]

The next data set deals with salivary alpha-amylase. Put plainly: salivary alpha-amylase level before and after a stress test (kinetic reaction assay kit). It counts as in vivo, human. Conditions: Table 6; before vs immediately after ten minute stress test; about 10-15 panelists; DPG = +60.7%.
Source text: Salivary alpha-amylase is widely used as a biomarker for acute stress. The purpose of this study was to investigate the influence of individual fragrance compounds, particularly musk compounds, on a subject's salivary alpha-amylase levels before and after exposure to a stressor. The subject sniffed each musk compound, then was exposed to a stressor. The goal was to identify one or more specific musk compounds which caused the least amount of change in salivary alpha-amylase levels or decreased a subject's salivary alpha-amylase levels compared to before administration, thereby reducing or inhibiting a response to stress stimuli. […] The p values of the control as compared to each musk compound were calculated as follows: rosamusk (p=0.0366), habanolide (p=0.1163), ambrettolide (p=0.1397).
Twelve to fourteen female panelists age 30-45 participated in this study for each of the test materials. Stress was induced using a timed ten minute mathematical/word test in a small group competition setting. The musk material was introduced at intervals during the stress test.
Saliva was collected before and immediately after the stress test. Saliva samples were assayed for salivary alpha-amylase activity using a commercially available kinetic reaction assay kit (Salimetrics®, State College, Pa.).
as §1, §2, §3, §4, §5

Data set [1] can be described thus: chassis-air partition coefficient, APDO soft solid chassis. The data set is classed as physicochemical. The text has this: (§6) The chassis-air partition coefficient can be measured for materials in various chassis.
(§7) Ki,chassis-air is the chassis-air partition coefficient for component i in the fragrance formula
(§8) Ci, chassis is the concentration of component i in the product formula chassis in molarity, M
(§9) Ci, air is the concentration of component i in the headspace air in equilibrium with the formula chassis in molarity, M
(§10) For the “Example Accord” in the BC-162 shampoo chassis components, the log chassis-air partition coefficients are as listed in Table 11.

Data set [2] is described as follows: chassis-air partition coefficient, BC-162 shampoo chassis. It counts as physicochemical.
Source text: as §6, §7, §8, §9, §10

For the compound `CC(=O)c1cc2c(cc1C)C(C)(C)C(C)C2(C)C` (stereo not drawn) [Phantolide, 1-(1,1,2,3,3,6-hexamethyl-2H-inden-5-yl)ethanone], in the data set on salivary cortisol, the “Cortisol Data (change in salivary cortisol)” value is −12.3%. Moreover, the “Salivary Amylase Data (change in salivary alpha-amylase)” value with salivary alpha-amylase is −19.2%. `CC1CCCCCCCCCCCCC(=O)C1` [L-Muscone]: the “Cortisol Data (change in salivary cortisol)” value with salivary cortisol was “+25.6%”. In the data set on salivary alpha-amylase, the “Salivary Amylase Data (change in salivary alpha-amylase)” value is given as “+14.5%”. As for `C=C.CCCCCCCCCCCC(=O)O` [ZENOLIDE, ethylene dodecanoate], in data set [1], the “logK, APDO Soft Solid (log chassis-air partition coefficient)” value amounted to 6.966. Further, the “logK, BC162 (log chassis-air partition coefficient)” value in data set [2] came out at 6.131. As for `CC(=O)C(C)CC[C@H]1CCC(C)C1(C)C` (stereo partly drawn) [3-methyl-5-((1R)-2,2,3-trimethylcyclopentyl)pentan-2-one], the “Salivary Amylase Data (change in salivary alpha-amylase)” value in the data set on salivary alpha-amylase is given as −6.1%. For the compound `CC1=CCC(C/C=C(\C)CO)C1(C)C` (stereo not drawn) [Hindinol ®, (E)-2-methyl-4-(2,2,3-trimethyl-1-cyclopent-3-enyl)but-2-en-1-ol], the “Cortisol Data (change in salivary cortisol)” value in the data set with salivary cortisol was −25.0%. Further, the “Salivary Amylase Data (change in salivary alpha-amylase)” value in the data set on salivary alpha-amylase was “+82.3%”.

Values taken from US11820961B2, “Musk compositions and methods of use thereof” (Takasago International Corporation, priority 2015, dated 2023).
